Test results from the NIST ThermoML archive (doi:10.1016/j.tca.2010.03.028).
Numbers after ± are expanded uncertainties.

Legend:
[1] = excess molar enthalpy (molar enthalpy of mixing); xn = mol fraction of the nth substance listed; conditions: 308.15 K, 101 kPa, Liquid, Calvet calorimetry
[2] = xn = mol fraction of the nth substance listed; conditions: 308.15 K, 101 kPa, Liquid; for excess molar volume: Direct dilatometry; for speed of sound: Linear variable-path acoustic interferometer

C1CCOCC1 [tetrahydropyran] + C1CCCCC1
Conditions	excess molar enthalpy [kcal/mol]	excess molar volume [m3/mol]	speed of sound [m/s]
[1], x1 = 0.0634	0.0319 ± 0.000765	–	–
[1], x1 = 0.1146	0.0546 ± 0.00122	–	–
[1], x1 = 0.2073	0.088 ± 0.00194	–	–
[1], x1 = 0.2734	0.106 ± 0.00232	–	–
[1], x1 = 0.3379	0.118 ± 0.00263	–	–
[1], x1 = 0.3805	0.123 ± 0.00263	–	–
[1], x1 = 0.4339	0.127 ± 0.00287	–	–
[1], x1 = 0.5322	0.126 ± 0.00263	–	–
[1], x1 = 0.6045	0.118 ± 0.00263	–	–
[1], x1 = 0.6848	0.103 ± 0.00225	–	–
[1], x1 = 0.7529	0.0864 ± 0.00189	–	–
[1], x1 = 0.7939	0.0744 ± 0.00165	–	–
[1], x1 = 0.8564	0.054 ± 0.00122	–	–
[1], x1 = 0.8976	0.0394 ± 0.000908	–	–
[2], x1 = 0.0648	–	9.1e-08 ± 2e-09	–
[2], x1 = 0.0785	–	–	1209 ± 3
[2], x1 = 0.1372	–	1.72e-07 ± 3e-09	–
[2], x1 = 0.161	–	–	1205 ± 3
[2], x1 = 0.1954	–	2.24e-07 ± 3e-09	–
[2], x1 = 0.1965	–	–	1204 ± 3
[2], x1 = 0.2351	–	2.53e-07 ± 3e-09	–
[2], x1 = 0.2477	–	–	1202 ± 3
[2], x1 = 0.303	–	2.9e-07 ± 4e-09	–
[2], x1 = 0.3378	–	–	1200 ± 3
[2], x1 = 0.3575	–	3.1e-07 ± 4e-09	–
[2], x1 = 0.3879	–	–	1199 ± 3
[2], x1 = 0.433	–	–	1199 ± 3
[2], x1 = 0.4351	–	3.23e-07 ± 4e-09	–
[2], x1 = 0.4712	–	–	1199 ± 3
[2], x1 = 0.4911	–	3.22e-07 ± 4e-09	–
[2], x1 = 0.5344	–	–	1200 ± 3
[2], x1 = 0.5412	–	3.14e-07 ± 4e-09	–
[2], x1 = 0.5988	–	–	1202 ± 3
[2], x1 = 0.6421	–	–	1203 ± 3
[2], x1 = 0.6536	–	2.76e-07 ± 4e-09	–
[2], x1 = 0.721	–	2.4e-07 ± 3e-09	–
[2], x1 = 0.7533	–	–	1209 ± 3
[2], x1 = 0.7952	–	1.9e-07 ± 3e-09	–
[2], x1 = 0.8066	–	–	1212 ± 3
[2], x1 = 0.8827	–	1.17e-07 ± 3e-09	–
[2], x1 = 0.9325	–	7e-08 ± 2e-09	–

C1CCOCC1 [tetrahydropyran] + CCCCCC
Conditions	excess molar enthalpy [kcal/mol]	excess molar volume [m3/mol]	speed of sound [m/s]
[1], x1 = 0.0581	0.0246 ± 0.000621	–	–
[1], x1 = 0.1073	0.044 ± 0.001	–	–
[1], x1 = 0.1962	0.075 ± 0.00165	–	–
[1], x1 = 0.2274	0.0844 ± 0.00186	–	–
[1], x1 = 0.3276	0.109 ± 0.00239	–	–
[1], x1 = 0.3888	0.12 ± 0.00263	–	–
[1], x1 = 0.4395	0.126 ± 0.00263	–	–
[1], x1 = 0.4968	0.13 ± 0.00287	–	–
[1], x1 = 0.522	0.131 ± 0.00287	–	–
[1], x1 = 0.5931	0.129 ± 0.00287	–	–
[1], x1 = 0.6634	0.121 ± 0.00263	–	–
[1], x1 = 0.7514	0.103 ± 0.00225	–	–
[1], x1 = 0.8124	0.0849 ± 0.00186	–	–
[1], x1 = 0.8997	0.0509 ± 0.00115	–	–
[2], x1 = 0.0328	–	1.4e-08 ± 2e-09	–
[2], x1 = 0.0459	–	1.9e-08 ± 2e-09	–
[2], x1 = 0.0694	–	2.7e-08 ± 2e-09	–
[2], x1 = 0.0785	–	3e-08 ± 2e-09	–
[2], x1 = 0.0981	–	–	1054 ± 3
[2], x1 = 0.1294	–	4.4e-08 ± 2e-09	–
[2], x1 = 0.1561	–	4.9e-08 ± 2e-09	–
[2], x1 = 0.1578	–	–	1067 ± 3
[2], x1 = 0.1965	–	–	1075 ± 3
[2], x1 = 0.2753	–	6.4e-08 ± 2e-09	–
[2], x1 = 0.2955	–	–	1093 ± 3
[2], x1 = 0.3262	–	6.6e-08 ± 2e-09	–
[2], x1 = 0.3313	–	–	1099 ± 3
[2], x1 = 0.3955	–	–	1110 ± 3
[2], x1 = 0.4469	–	–	1118 ± 3
[2], x1 = 0.4629	–	6.2e-08 ± 2e-09	–
[2], x1 = 0.4947	–	–	1126 ± 3
[2], x1 = 0.515	–	5.8e-08 ± 2e-09	–
[2], x1 = 0.5211	–	–	1130 ± 3
[2], x1 = 0.5955	–	–	1143 ± 3
[2], x1 = 0.6692	–	4.2e-08 ± 2e-09	–
[2], x1 = 0.6955	–	–	1161 ± 3
[2], x1 = 0.7311	–	–	1168 ± 3
[2], x1 = 0.7837	–	2.8e-08 ± 2e-09	–
[2], x1 = 0.7965	–	–	1181 ± 3
[2], x1 = 0.8461	–	2e-08 ± 2e-09	–
[2], x1 = 0.8992	–	–	1203 ± 3
[2], x1 = 0.9239	–	1e-08 ± 2e-09	–

C1CCOCC1 [tetrahydropyran] + CCCCCCC
Conditions	excess molar enthalpy [kcal/mol]	excess molar volume [m3/mol]	speed of sound [m/s]
[1], x1 = 0.0842	0.0387 ± 0.000908	–	–
[1], x1 = 0.1777	0.0796 ± 0.00174	–	–
[1], x1 = 0.2324	0.101 ± 0.0022	–	–
[1], x1 = 0.3339	0.132 ± 0.00287	–	–
[1], x1 = 0.3741	0.141 ± 0.00311	–	–
[1], x1 = 0.4413	0.15 ± 0.00335	–	–
[1], x1 = 0.5008	0.153 ± 0.00335	–	–
[1], x1 = 0.5989	0.147 ± 0.00311	–	–
[1], x1 = 0.6821	0.13 ± 0.00287	–	–
[1], x1 = 0.7124	0.122 ± 0.00263	–	–
[1], x1 = 0.7654	0.104 ± 0.00227	–	–
[1], x1 = 0.8325	0.0779 ± 0.00172	–	–
[1], x1 = 0.8778	0.0581 ± 0.00129	–	–
[1], x1 = 0.9213	0.0379 ± 0.000884	–	–
[2], x1 = 0.0543	–	5.7e-08 ± 2e-09	–
[2], x1 = 0.0833	–	–	1100 ± 3
[2], x1 = 0.113	–	1.11e-07 ± 3e-09	–
[2], x1 = 0.1323	–	–	1107 ± 3
[2], x1 = 0.1977	–	–	1117 ± 3
[2], x1 = 0.2031	–	1.77e-07 ± 3e-09	–
[2], x1 = 0.2396	–	–	1127 ± 3
[2], x1 = 0.2613	–	2.1e-07 ± 3e-09	–
[2], x1 = 0.2998	–	2.28e-07 ± 3e-09	–
[2], x1 = 0.3245	–	–	1137 ± 3
[2], x1 = 0.3475	–	2.45e-07 ± 3e-09	–
[2], x1 = 0.3812	–	–	1145 ± 3
[2], x1 = 0.3991	–	2.58e-07 ± 4e-09	–
[2], x1 = 0.4396	–	–	1154 ± 3
[2], x1 = 0.4441	–	2.65e-07 ± 4e-09	–
[2], x1 = 0.4964	–	2.68e-07 ± 4e-09	–
[2], x1 = 0.5033	–	–	1163 ± 3
[2], x1 = 0.5601	–	2.64e-07 ± 4e-09	–
[2], x1 = 0.5684	–	–	1172 ± 3
[2], x1 = 0.6107	–	2.55e-07 ± 3e-09	–
[2], x1 = 0.6161	–	–	1178 ± 3
[2], x1 = 0.688	–	–	1187 ± 3
[2], x1 = 0.7123	–	2.2e-07 ± 3e-09	–
[2], x1 = 0.7646	–	–	1197 ± 3
[2], x1 = 0.8011	–	1.72e-07 ± 3e-09	–
[2], x1 = 0.8223	–	–	1204 ± 3
[2], x1 = 0.8999	–	9.8e-08 ± 2e-09	–
[2], x1 = 0.9044	–	–	1213 ± 3
